Laboratory results: US20230278972A1, “SUBSTITUTED HALOALKYL SULFONANILIDE HERBICIDES” (FMC Corporation, priority 2020, published 2023)

Tests used:
Assay type in all cases: in vivo
[1] = system: barnyardgrass (Echinochloa crus-galli); experiment: Test A preemergence, barnyardgrass; details: Preemergence; for Plant response rating, Barnyardgrass: 0 to 100 scale (0 no effect, 100 complete control); for Barnyardgrass plant response rating: visual injury on 0 to 100 scale (0 no effect, 100 complete control), approximately 10 days
Method in brief: (§1)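 After sowing into a sand-amended loam, pots for the preemergence test were treated by spraying directly onto soil. In parallel, seedlings at the one- to two-leaf stage and 2 to 10 cm tall were treated postemergence with the identical surfactant-containing formulation.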

[2] = system: Foxtail, Giant (giant foxtail, Setaria faberi); experiment: Test A postemergence, Foxtail, Giant; details: Postemergence, 0 to 100 scale (0 no effect, 100 complete control); for Foxtail, Giant plant response rating: visual injury vs untreated controls after approx. 10 days
Method in brief: as §1

[3] = system: Foxtail, Giant (giant foxtail, Setaria faberi); experiment: Test A preemergence, Foxtail, Giant; details: Preemergence; for Plant response rating, Foxtail, Giant: 0 to 100 scale (0 no effect, 100 complete control); for Foxtail, Giant plant response rating: visual injury on 0 to 100 scale (0 no effect, 100 complete control), approximately 10 days
Method in brief: as §1

kochia (Bassia scoparia) [4] = experiment: Test A preemergence, kochia; details: Preemergence; for Plant response rating, Kochia: 0 to 100 scale (0 no effect, 100 complete control); for Kochia plant response rating: visual injury on 0 to 100 scale (0 no effect, 100 complete control), approximately 10 days
Method in brief: as §1

[5] = system: Ryegrass, Italian (Italian ryegrass, Lolium multiflorum); experiment: Test A preemergence, Ryegrass, Italian; details: Preemergence; for Plant response rating, Ryegrass, Italian: 0 to 100 scale (0 no effect, 100 complete control); for Ryegrass, Italian plant response rating: visual injury on 0 to 100 scale (0 no effect, 100 complete control), approximately 10 days
Method in brief: as §1

[6] = system: Ryegrass, Italian (Italian ryegrass, Lolium multiflorum); experiment: Test A postemergence, Ryegrass, Italian; details: Postemergence, 0 to 100 scale (0 no effect, 100 complete control); for Ryegrass, Italian plant response rating: visual injury vs untreated controls after approx. 10 days
Method in brief: as §1

[7] = system: pigweed (Amaranthus retroflexus); experiment: Test A preemergence, pigweed; details: for Plant response rating, Pigweed: 0 to 100 scale (0 no effect, 100 complete control); for Pigweed plant response rating: visual injury on 0 to 100 scale (0 no effect, 100 complete control), approximately 10 days
Method in brief: (§2)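 Postemergence ratings come from foliar sprays onto one- to two-leaf plants of 2 to 10 cm grown in loam/sand; preemergence ratings come from a directed spray onto the soil of newly seeded pots. Formulation was a surfactant-containing non-phytotoxic solvent blend.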

[8] = system: barnyardgrass (Echinochloa crus-galli); experiment: Test A postemergence, barnyardgrass; details: Postemergence, 0 to 100 scale (0 no effect, 100 complete control); for Barnyardgrass plant response rating: visual injury vs untreated controls after approx. 10 days
Method in brief: as §2

corn (Zea mays) = experiment: Test A postemergence, corn; details: Postemergence, 0 to 100 scale (0 no effect, 100 complete control); for Corn plant response rating: visual injury vs untreated controls after approx. 10 days
Method in brief: as §1

[9] = system: ragweed (common ragweed, Ambrosia artemisiifolia); experiment: Test A preemergence, ragweed; details: Preemergence; for Plant response rating, Ragweed: 0 to 100 scale (0 no effect, 100 complete control); for Ragweed plant response rating: visual injury on 0 to 100 scale (0 no effect, 100 complete control), approximately 10 days
Method in brief: as §1

[10] = system: pigweed (Amaranthus retroflexus); experiment: Test A postemergence, pigweed; details: Postemergence, 0 to 100 scale (0 no effect, 100 complete control); for Pigweed plant response rating: visual injury vs untreated controls after approx. 10 days
Method in brief: as §1

[11] = system: blackgrass (Alopecurus myosuroides); experiment: Test A postemergence, blackgrass; details: Postemergence, 0 to 100 scale (0 no effect, 100 complete control); for Blackgrass plant response rating: visual injury vs untreated controls after approx. 10 days
Method in brief: as §1

[12] = system: galium (catchweed bedstraw, Galium aparine); experiment: Test A postemergence, galium; details: Postemergence, 0 to 100 scale (0 no effect, 100 complete control); for Galium plant response rating: visual injury vs untreated controls after approx. 10 days
Method in brief: as §2

kochia (Bassia scoparia) [13] = experiment: Test A postemergence, kochia; details: Postemergence, 0 to 100 scale (0 no effect, 100 complete control); for Kochia plant response rating: visual injury vs untreated controls after approx. 10 days
Method in brief: as §1

[14] = system: ragweed (common ragweed, Ambrosia artemisiifolia); experiment: Test A postemergence, ragweed; details: Postemergence, 0 to 100 scale (0 no effect, 100 complete control); for Ragweed plant response rating: visual injury vs untreated controls after approx. 10 days
Method in brief: as §1

[15] = system: wheat (Triticum aestivum); experiment: Test A postemergence, wheat; details: Postemergence, 0 to 100 scale (0 no effect, 100 complete control); for Wheat plant response rating: visual injury vs untreated controls after approx. 10 days
Method in brief: as §2

[16] = 125 g ai/ha, visual injury, approx. 10 days
[17] = 500 g ai/ha, visual injury approx. 10 days
[18] = 125 g ai/ha, visual injury approx. 10 days
[19] = 31 g ai/ha, visual injury, approx. 10 days

Structure (SMILES): CC(=O)OCN(c1cc(C2=NOC3(CCCC3)C2)c(C)cc1C)S(=O)(=O)C(F)(F)F [Compound 218]
- Plant response rating, Barnyardgrass [1, 16]: 100
- Plant response rating, Barnyardgrass ([1]; 500 g ai/ha): 100
- Plant response rating, Foxtail, Giant ([2]; 125 g ai/ha): 50
- Foxtail, Giant plant response rating ([2]; 500 g ai/ha): 90
- Plant response rating, Foxtail, Giant [3, 16]: 100
- Plant response rating, Foxtail, Giant ([3]; 500 g ai/ha): 100
- Plant response rating, Kochia (kochia (Bassia scoparia) [4]; [16]): 30
- Plant response rating, Kochia (kochia (Bassia scoparia) [4]; 500 g ai/ha): 60
- Plant response rating, Ryegrass, Italian [5, 16]: 100
- Plant response rating, Ryegrass, Italian ([5]; 500 g ai/ha): 100
- Plant response rating, Ryegrass, Italian ([6]; 125 g ai/ha): 30
- Ryegrass, Italian plant response rating ([6]; 500 g ai/ha): 80
- Plant response rating, Pigweed [7, 16]: 80
- Plant response rating, Pigweed ([7]; 500 g ai/ha): 90
- Plant response rating, Barnyardgrass ([8]; 125 g ai/ha): 80
- Barnyardgrass plant response rating ([8]; 500 g ai/ha): 90
- Plant response rating, Corn (corn (Zea mays); 125 g ai/ha): 10
- Corn plant response rating (corn (Zea mays); 500 g ai/ha): 70
- Plant response rating, Ragweed [9, 16]: 20
- Plant response rating, Ragweed ([9]; 500 g ai/ha): 90
- Plant response rating, Pigweed ([10]; 125 g ai/ha): 50
- Pigweed plant response rating ([10]; 500 g ai/ha): 80
- Plant response rating, Blackgrass ([11]; 125 g ai/ha): 10
- Blackgrass plant response rating ([11]; 500 g ai/ha): 40
- Plant response rating, Galium ([12]; 125 g ai/ha): 60
- Galium plant response rating ([12]; 500 g ai/ha): 80
- Plant response rating, Kochia (kochia (Bassia scoparia) [13]; 125 g ai/ha): 60
- Kochia plant response rating (kochia (Bassia scoparia) [13]; 500 g ai/ha): 80
- Plant response rating, Ragweed ([14]; 125 g ai/ha): 40
- Ragweed plant response rating ([14]; 500 g ai/ha): 80
- Plant response rating, Wheat ([15]; 125 g ai/ha): 10
- Wheat plant response rating ([15]; 500 g ai/ha): 70

Structure (SMILES): Cc1cc(C)c(N(S(=O)(=O)C(F)(F)F)S(=O)(=O)C(F)(F)F)cc1C(=O)N1CCC(Cl)CC1 [Compound 243]
- Plant response rating, Barnyardgrass [1, 16]: 80
- Barnyardgrass plant response rating ([1]; 500 g ai/ha): 90
- Plant response rating, Foxtail, Giant ([2]; 125 g ai/ha): 0
- Plant response rating, Foxtail, Giant [2, 17]: 40
- Plant response rating, Foxtail, Giant [3, 16]: 100
- Foxtail, Giant plant response rating ([3]; 500 g ai/ha): 100
- Plant response rating, Kochia (kochia (Bassia scoparia) [4]; [16]): 20
- Kochia plant response rating (kochia (Bassia scoparia) [4]; 500 g ai/ha): 80
- Plant response rating, Ryegrass, Italian [5, 16]: 90
- Ryegrass, Italian plant response rating ([5]; 500 g ai/ha): 100
- Plant response rating, Ryegrass, Italian ([6]; 125 g ai/ha): 0
- Plant response rating, Ryegrass, Italian [6, 17]: 30
- Plant response rating, Pigweed [7, 16]: 100
- Pigweed plant response rating ([7]; 500 g ai/ha): 100
- Plant response rating, Barnyardgrass ([8]; 125 g ai/ha): 50
- Plant response rating, Barnyardgrass [8, 17]: 70
- Plant response rating, Corn (corn (Zea mays); 125 g ai/ha): 0
- Plant response rating, Corn (corn (Zea mays); [17]): 0
- Plant response rating, Ragweed [9, 16]: 70
- Ragweed plant response rating ([9]; 500 g ai/ha): 80
- Plant response rating, Pigweed ([10]; 125 g ai/ha): 90
- Plant response rating, Pigweed [10, 17]: 100
- Plant response rating, Blackgrass ([11]; 125 g ai/ha): 0
- Plant response rating, Blackgrass [11, 17]: 10
- Plant response rating, Galium ([12]; 125 g ai/ha): 70
- Plant response rating, Galium [12, 17]: 90
- Plant response rating, Kochia (kochia (Bassia scoparia) [13]; 125 g ai/ha): 10
- Plant response rating, Kochia (kochia (Bassia scoparia) [13]; [17]): 70
- Plant response rating, Ragweed ([14]; 125 g ai/ha): 30
- Plant response rating, Ragweed [14, 17]: 90
- Plant response rating, Wheat ([15]; 125 g ai/ha): 0
- Plant response rating, Wheat [15, 17]: 30

Structure (SMILES): CCn1nc(C)cc(-c2cc(N(S(=O)(=O)C(F)(F)F)S(=O)(=O)C(F)(F)F)c(C)cc2C)c1=O [Compound 52]
- Barnyardgrass plant response rating ([1]; 125 g ai/ha): 100
- Plant response rating, Barnyardgrass ([1]; 500 g ai/ha): 100
- Plant response rating, Foxtail, Giant [2, 18]: 0
- Foxtail, Giant plant response rating ([2]; 500 g ai/ha): 80
- Foxtail, Giant plant response rating ([3]; 125 g ai/ha): 100
- Plant response rating, Foxtail, Giant ([3]; 500 g ai/ha): 100
- Kochia plant response rating (kochia (Bassia scoparia) [4]; 125 g ai/ha): 70
- Plant response rating, Kochia (kochia (Bassia scoparia) [4]; 500 g ai/ha): 90
- Ryegrass, Italian plant response rating ([5]; 125 g ai/ha): 90
- Plant response rating, Ryegrass, Italian ([5]; 500 g ai/ha): 90
- Plant response rating, Ryegrass, Italian [6, 18]: 20
- Ryegrass, Italian plant response rating ([6]; 500 g ai/ha): 40
- Pigweed plant response rating ([7]; 125 g ai/ha): 50
- Plant response rating, Pigweed ([7]; 500 g ai/ha): 90
- Plant response rating, Barnyardgrass [8, 18]: 0
- Barnyardgrass plant response rating ([8]; 500 g ai/ha): 80
- Plant response rating, Corn (corn (Zea mays); [18]): 0
- Corn plant response rating (corn (Zea mays); 500 g ai/ha): 0
- Ragweed plant response rating ([9]; 125 g ai/ha): 10
- Plant response rating, Ragweed ([9]; 500 g ai/ha): 60
- Plant response rating, Pigweed [10, 18]: 30
- Pigweed plant response rating ([10]; 500 g ai/ha): 50
- Plant response rating, Blackgrass [11, 18]: 0
- Blackgrass plant response rating ([11]; 500 g ai/ha): 80
- Plant response rating, Galium [12, 18]: 60
- Galium plant response rating ([12]; 500 g ai/ha): 80
- Plant response rating, Kochia (kochia (Bassia scoparia) [13]; [18]): 30
- Kochia plant response rating (kochia (Bassia scoparia) [13]; 500 g ai/ha): 80
- Plant response rating, Ragweed [14, 18]: 30
- Ragweed plant response rating ([14]; 500 g ai/ha): 60
- Plant response rating, Wheat [15, 18]: 60
- Wheat plant response rating ([15]; 500 g ai/ha): 70

Structure (SMILES): CSC1CCCN(C(=O)c2cc(NS(=O)(=O)C(F)(F)F)c(C)cc2C)C1 (centres unmarked) [Compound 3]
- Plant response rating, Barnyardgrass [1, 19]: 0
- Barnyardgrass plant response rating ([1]; 125 g ai/ha): 50
- Plant response rating, Foxtail, Giant ([2]; 31 g ai/ha): 0
- Plant response rating, Foxtail, Giant [2, 18]: 0
- Plant response rating, Foxtail, Giant [3, 19]: 20
- Foxtail, Giant plant response rating ([3]; 125 g ai/ha): 50
- Plant response rating, Kochia (kochia (Bassia scoparia) [4]; [19]): 30
- Kochia plant response rating (kochia (Bassia scoparia) [4]; 125 g ai/ha): 80
- Plant response rating, Ryegrass, Italian [5, 19]: 20
- Ryegrass, Italian plant response rating ([5]; 125 g ai/ha): 70
- Plant response rating, Ryegrass, Italian ([6]; 31 g ai/ha): 0
- Plant response rating, Ryegrass, Italian [6, 18]: 0
- Plant response rating, Pigweed [7, 19]: 90
- Pigweed plant response rating ([7]; 125 g ai/ha): 100
- Plant response rating, Barnyardgrass ([8]; 31 g ai/ha): 0
- Plant response rating, Barnyardgrass [8, 18]: 30
- Plant response rating, Corn (corn (Zea mays); 31 g ai/ha): 20
- Plant response rating, Corn (corn (Zea mays); [18]): 30
- Plant response rating, Ragweed [9, 19]: 0
- Ragweed plant response rating ([9]; 125 g ai/ha): 70
- Plant response rating, Pigweed ([10]; 31 g ai/ha): 70
- Plant response rating, Pigweed [10, 18]: 90
- Plant response rating, Blackgrass ([11]; 31 g ai/ha): 0
- Plant response rating, Blackgrass [11, 18]: 0
- Plant response rating, Galium ([12]; 31 g ai/ha): 90
- Plant response rating, Galium [12, 18]: 90
- Plant response rating, Kochia (kochia (Bassia scoparia) [13]; 31 g ai/ha): 10
- Plant response rating, Kochia (kochia (Bassia scoparia) [13]; [18]): 40
- Plant response rating, Ragweed ([14]; 31 g ai/ha): 40
- Plant response rating, Ragweed [14, 18]: 80
- Plant response rating, Wheat ([15]; 31 g ai/ha): 30
- Plant response rating, Wheat [15, 18]: 50
